The values that follow come from patent US8338565B2, “Macrocyclic compounds for inhibition of tumor necrosis factor alpha” (Ensemble Therapeutics Corporation, priority 2008, dated 2012).

For one experiment, the target named is T1, TNFα / TNFα receptor (TNFα R1/Fc) (Homo sapiens, UniProt P01375).
T1 construct: purchased R&D Systems
T1 sequence (P01375 77-233 limits assumed, species assumed): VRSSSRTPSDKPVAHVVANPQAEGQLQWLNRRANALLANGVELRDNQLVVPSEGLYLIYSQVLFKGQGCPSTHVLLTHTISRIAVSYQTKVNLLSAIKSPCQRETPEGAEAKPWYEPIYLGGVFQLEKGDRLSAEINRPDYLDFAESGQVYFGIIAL
Nature of the experiment: Inhibition of binding of TNFα to the TNFα receptor (plate ELISA competition). The note with it: Activity (IC50, inhibition of TNFα binding to TNFα R1/Fc), Table 2. The method in brief:
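Compound dilutions were preincubated 30 min at RT with 8.33 nM TNFα R1/Fc in PBST with 2% DMSO, then added to wells coated with 15 nM TNFα for 30 min. Bound receptor was detected with HRP anti-human Fc and TMB, read as A450.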
As for `CN(C(=O)[C@@H]1Cc2ccc(cc2)OCC(=O)N[C@@H](Cc2cccs2)C(=O)N[C@H](Cc2ccc(-c3ccccc3)cc2)C(=O)N[C@@H](CCc2ccccc2)C(=O)N1)[C@@H](Cc1ccccc1)C(=O)O` [Compound 621], the IC50 is less than 10 µM.

The same experiment, now with this note: Table 2; read-out: Activity (IC50, inhibition of TNFα binding to TNFα R1/Fc).
In the case of `O=C1COc2ccc(cc2)C[C@@H](C(=O)N(CCS(=O)(=O)O)C(CO)(CO)CO)NC(=O)[C@H](CCc2ccccc2)NC(=O)[C@@H](Cc2ccc(-c3ccccc3)cc2)NC(=O)[C@H](Cc2ccncc2)N1` [Compound 606], the IC50 was less than 10 µM.
The same measure, in the same setting: as for `O=C1COc2ccc(cc2)C[C@@H](C(=O)NCCS(=O)(=O)O)NC(=O)[C@H](CCc2ccccc2)NC(=O)[C@@H](Cc2ccc(-c3ccccc3)cc2)NC(=O)[C@H](Cc2ccc(-c3ccccc3)cc2)N1` [Compound 608], the figure is 10 to 30 µM.
Still for that read-out and setting: as for `O=C1COc2ccc(cc2)C[C@@H](C(=O)NCS(=O)(=O)O)NC(=O)[C@H](Cc2ccccc2F)NC(=O)[C@@H](Cc2ccc(-c3ccccc3)cc2)NC(=O)[C@H](Cc2cccs2)N1` [Compound 612], the figure is 10 to 30 µM.
Turning to `COC(=O)[C@@H]1Cc2ccc(cc2)OCC(=O)N[C@@H](Cc2cccs2)C(=O)N[C@H](Cc2ccc(-c3ccccc3)cc2)C(=O)N[C@@H](CCc2ccccc2)C(=O)N1` [Compound 615], the IC50 is more than 100 µM.
On the same count and under the same terms, for `O=C1COc2ccc(cc2)C[C@@H](C(=O)NCS(=O)(=O)O)NC(=O)[C@H](CCc2ccccc2)NC(=O)[C@@H](Cc2ccc(-c3ccccc3)cc2)NC(=O)[C@H](Cc2ccc(-c3ccncc3)cc2)N1` [Compound 617] the value was less than 10 µM.
For `O=C1COc2ccc(cc2)C[C@@H](C(=O)N[C@H](CCc2ccccc2)C(=O)O)NC(=O)[C@H](CCc2ccccc2)NC(=O)[C@@H](Cc2ccc(-c3ccccc3)cc2)NC(=O)[C@H](Cc2ccncc2)N1` [Compound 619], the IC50 was less than 10 µM.
On the same count and under the same terms, as for `O=C1COc2ccc(cc2)C[C@@H](C(=O)N[C@@H](CCc2ccccc2)C(=O)O)NC(=O)[C@H](CCc2ccccc2)NC(=O)[C@@H](Cc2ccc(-c3ccccc3)cc2)NC(=O)[C@H](Cc2ccc(-c3ccncc3)cc2)N1` [Compound 623], the figure is less than 10 µM.
For `O=C1COc2ccc(cc2)C[C@@H](C(=O)N[C@H](CCc2ccccc2)C(=O)O)NC(=O)[C@H](CCc2ccccc2)NC(=O)[C@@H](Cc2ccc(-c3ccccc3)cc2)NC(=O)[C@H](Cc2ccc(-c3ccncc3)cc2)N1` [Compound 624], the IC50 was less than 10 µM.
Same read-out and setting: as for `O=C1COc2ccc(cc2)C[C@@H](C(=O)O)NC(=O)[C@H](Cc2ccccc2F)NC(=O)[C@@H](Cc2ccc(-c3ccccc3)cc2)NC(=O)[C@H](Cc2cccs2)N1` [Compound 625], the figure is less than 10 µM; as for `O=C1COc2ccc(cc2)C[C@@H](C(=O)O)NC(=O)[C@H](Cc2cccc(F)c2)NC(=O)[C@@H](Cc2ccc(-c3ccccc3)cc2)NC(=O)[C@H](Cc2cccs2)N1` [Compound 626], more than 100 µM; as for `O=C1COc2ccc(cc2)C[C@@H](C(=O)O)NC(=O)[C@H](Cc2ccc(F)cc2)NC(=O)[C@@H](Cc2ccc(-c3ccccc3)cc2)NC(=O)[C@H](Cc2cccs2)N1` [Compound 627], more than 100 µM.
Same read-out and setting: for `COc1ccc(C[C@@H]2NC(=O)[C@@H](Cc3ccc(-c4ccccc4)cc3)NC(=O)[C@H](Cc3cccs3)NC(=O)COc3ccc(cc3)C[C@@H](C(=O)O)NC2=O)cc1` [Compound 630] the value was 10 to 30 µM; for `O=C1COc2ccc(cc2)C[C@@H](C(=O)O)NC(=O)[C@H](Cc2ccc(-c3ccccn3)cc2)NC(=O)[C@@H](Cc2ccc(-c3ccccc3)cc2)NC(=O)[C@H](Cc2cccs2)N1` [Compound 632], less than 10 µM.
For the compound `O=C1COc2ccc(cc2)C[C@@H](C(=O)O)NC(=O)[C@H](Cc2ccc(-c3cccnc3)cc2)NC(=O)[C@@H](Cc2ccc(-c3ccccc3)cc2)NC(=O)[C@H](Cc2cccs2)N1` [Compound 633], the IC50 is less than 10 µM.
On the same count and under the same terms, as for `O=C1COc2ccc(cc2)C[C@@H](C(=O)O)NC(=O)[C@H](Cc2ccc(-c3ccncc3)cc2)NC(=O)[C@@H](Cc2ccc(-c3ccccc3)cc2)NC(=O)[C@H](Cc2cccs2)N1` [Compound 634], the figure is less than 10 µM.
Same read-out and setting: for `CC(C)(C)c1ccc(C[C@@H]2NC(=O)[C@@H](Cc3ccc(-c4ccccc4)cc3)NC(=O)[C@H](Cc3cccs3)NC(=O)COc3ccc(cc3)C[C@@H](C(=O)O)NC2=O)cc1` [Compound 635] the value was less than 10 µM; for `O=C1COc2ccc(cc2)C[C@@H](C(=O)O)NC(=O)[C@H](Cc2ccc(F)cc2)NC(=O)[C@@H](Cc2ccc(-c3ccccc3)cc2)NC(=O)[C@H](Cc2ccncc2)N1` [Compound 637], less than 10 µM.
For the compound `COc1cccc(C[C@@H]2NC(=O)[C@@H](Cc3ccc(-c4ccccc4)cc3)NC(=O)[C@H](Cc3ccncc3)NC(=O)COc3ccc(cc3)C[C@@H](C(=O)O)NC2=O)c1` [Compound 638], the IC50 was less than 10 µM.
Take `COc1ccc(C[C@@H]2NC(=O)[C@@H](Cc3ccc(-c4ccccc4)cc3)NC(=O)[C@H](Cc3ccncc3)NC(=O)COc3ccc(cc3)C[C@@H](C(=O)O)NC2=O)cc1` [Compound 639]: the IC50 is less than 10 µM.
Still for that read-out and setting: as for `O=C1COc2ccc(cc2)C[C@@H](C(=O)O)NC(=O)[C@H](Cc2c[nH]c3ccccc23)NC(=O)[C@@H](Cc2ccc(-c3ccccc3)cc2)NC(=O)[C@H](Cc2cccs2)N1` [Compound 640], the figure is less than 10 µM; as for `N#Cc1cccc(C[C@H]2CC(=O)N[C@H](C(=O)O)Cc3ccc(cc3)OCC(=O)N[C@@H](Cc3cccs3)C(=O)N[C@H](Cc3ccc(-c4ccccc4)cc3)C(=O)N2)c1` [Compound 641], less than 10 µM; as for `O=C1COc2ccc(cc2)C[C@@H](C(=O)O)NC(=O)[C@H](Cc2ccc(-c3ccccn3)cc2)NC(=O)[C@@H](Cc2ccc(-c3ccccc3)cc2)NC(=O)[C@H](Cc2ccncc2)N1` [Compound 643], less than 10 µM.
Still for that read-out and setting: as for `O=C1COc2ccc(cc2)C[C@@H](C(=O)O)NC(=O)[C@H](Cc2ccc(-c3cccnc3)cc2)NC(=O)[C@@H](Cc2ccc(-c3ccccc3)cc2)NC(=O)[C@H](Cc2ccncc2)N1` [Compound 644], the figure is less than 10 µM; as for `O=C1COc2ccc(cc2)C[C@@H](C(=O)O)NC(=O)[C@H](Cc2ccc(-c3ccncc3)cc2)NC(=O)[C@@H](Cc2ccc(-c3ccccc3)cc2)NC(=O)[C@H](Cc2ccncc2)N1` [Compound 645], less than 10 µM; as for `O=C1COc2ccc(cc2)C[C@@H](C(=O)O)NC(=O)[C@H](Cc2ccccc2)NC(=O)[C@@H](Cc2ccc(-c3ccccc3)cc2)NC(=O)[C@H](Cc2ccncc2)N1` [Compound 646], less than 10 µM.
Regarding `O=C1COc2ccc(cc2)C[C@@H](C(=O)O)NC(=O)[C@H](Cc2cccc(C(F)(F)F)c2)NC(=O)[C@@H](Cc2ccc(-c3ccccc3)cc2)NC(=O)[C@H](Cc2ccncc2)N1` [Compound 648], the IC50 was less than 10 µM.
Still for that read-out and setting: for `O=C1COc2ccc(cc2)C[C@@H](C(=O)O)NC(=O)[C@H](Cc2ccccc2C(F)(F)F)NC(=O)[C@@H](Cc2ccc(-c3ccccc3)cc2)NC(=O)[C@H](Cc2ccncc2)N1` [Compound 649] the value was less than 10 µM; for `O=C1COc2ccc(cc2)C[C@@H](C(=O)O)NC(=O)[C@H](Cc2ccc(Cl)cc2Cl)NC(=O)[C@@H](Cc2ccc(-c3ccccc3)cc2)NC(=O)[C@H](Cc2ccncc2)N1` [Compound 650], less than 10 µM.
For the compound `O=C1COc2ccc(cc2)C[C@@H](C(=O)O)NC(=O)[C@H](Cc2cccs2)NC(=O)[C@@H](Cc2ccc(-c3ccccc3)cc2)NC(=O)[C@H](Cc2ccncc2)N1` [Compound 652], the IC50 was less than 10 µM.
